# According to paper PMC5601486, “Identification of 4-phenylquinolin-2(1H)-one as a specific allosteric inhibitor of Akt” (Scientific Reports, 2017):
# How the values were obtained:
# [1] = tested on: CAMK2D; assay: KINOMEscan; conditions: 50000 nM
# Experimental: KINOMEscan™ selectivity screen
# (§1) Briefly, Kinase-tagged T7 phage strains were grown in parallel in an E. coli host derived from the BL21 strain. E. coli were grown to log-phase and infected with T7 phage from a frozen stock and incubated with shaking at 32°C until lysis (90-150 minutes). The kinases were produced in HEK-293 cells and subsequently tagged with DNA for qPCR detection. Streptavidin-coated magnetic beads were treated with biotinylated small molecule ligands to generate affinity resins for kinase
# (§2) inhibitor or DMSO control was performed in polypropylene 384-well plates for 1 hr at room temperature. After wash with PBS buffer containing 0.05% Tween 20, the beads were incubated in elution buffer (PBS containing 0.05 % Tween 20 and 0.5 μM non-biotinylated affinity ligand) for 30 minutes at room temperature. The kinase concentration in the eluates was measured by qPCR.
# [2] = tested on: MKNK1; assay: KINOMEscan; conditions: 50000 nM
# Experimental: KINOMEscan™ selectivity screen
# as §1, §2
# [3] = tested on: ERBB3; assay: KINOMEscan; conditions: 50000 nM
# Experimental: KINOMEscan™ selectivity screen
# (§3) The assay was perfor med at DiscoveRx Corporation according the methods published previously5. Briefly, Kinase-tagged T7 phage strains were grown in parallel in an E. coli host derived from the BL21 strain. E. coli were grown to log-phase and infected with T7 phage from a frozen stock and incubated with shaking at 32°C until lysis (90-150 minutes). The kinases were produced in HEK-293 cells and subsequently tagged with DNA for qPCR detection. Streptavidin-coated magnetic beads were treated with biotinylated small molecule ligands to generate affinity resins for kinase
# as §2
# [4] = tested on: EPHA5; assay: KINOMEscan; conditions: 50000 nM
# Experimental: KINOMEscan™ selectivity screen
# as §3, §2
# [5] = tested on: GRK4; assay: KINOMEscan; conditions: 50000 nM
# Experimental: KINOMEscan™ selectivity screen
# (§4) The assay was perfor med at DiscoveRx Corporation according the methods published previously5. […] The kinases were produced in HEK-293 cells and subsequently tagged with DNA for qPCR detection. Streptavidin-coated magnetic beads were treated with biotinylated small molecule ligands to generate affinity resins for kinase
# as §2
# [6] = tested on: T1, PI3K; assay: ADP-Glo kinase assay; assay type: biochemical; conditions: 50 µM
# T1 construct: purchased SignalChem P27-10H-05
# [7] = tested on: ULK1; assay: KINOMEscan; conditions: 50000 nM
# Experimental: KINOMEscan™ selectivity screen
# as §3, §2
# [8] = tested on: PIM3; assay: KINOMEscan; conditions: 50000 nM
# Experimental: KINOMEscan™ selectivity screen
# as §3, §2
# [9] = tested on: PIP5K2B; assay: KINOMEscan; conditions: 50000 nM
# Experimental: KINOMEscan™ selectivity screen
# as §3, §2
# [10] = tested on: INSR; assay: KINOMEscan; conditions: 50000 nM
# Experimental: KINOMEscan™ selectivity screen
# as §4, §2
# [11] = tested on: NLK; assay: KINOMEscan; conditions: 50000 nM
# Experimental: KINOMEscan™ selectivity screen
# as §3, §2
# [12] = tested on: NEK6; assay: KINOMEscan; conditions: 50000 nM
# Experimental: KINOMEscan™ selectivity screen
# as §3, §2
# [13] = tested on: ACVR1; assay: KINOMEscan; conditions: 50000 nM
# Experimental: KINOMEscan™ selectivity screen
# as §3, §2
# [14] = tested on: NEK2; assay: KINOMEscan; conditions: 50000 nM
# Experimental: KINOMEscan™ selectivity screen
# as §3, §2
# [15] = tested on: Akt T308 phosphorylation; assay: Western blot analysis of T308 phosphorylation; assay type: cell-based; conditions: Mus musculus, N2a, 0.5 h; Neuro 2A cells, G7 30 min then IGF 30 min
# Experimental: The following criteria were applied for hit selection from the primary screen: 1, hits in robust curve classes (1/2/3) with efficacy greater than 30% were considered active; 2, these hits were filtered for donor interference; 3, hits were further filtered by reactive and promiscuous functional groups, as previously described4; 4, hits were clustered by structural similarity using Leadscope Hosted Client (Leadscope Inc., Columbus, […]
# Neuro 2A cells were seeded in 12-well plates in DMEM containing 5% FBS for 24 hr.
# After overnight serum starvation (in 0% FBS DMEM), cells were incubated for 30 min at 37 °C with G7 or LY294002 or Torin 1 (Sigma Aldrich) at various concentrations, or DMSO control. IGF-1 was added to each well at a final concentration of 100 ng/mL. After 30-min incubation cells were washed with cold PBS and lysed with 50 µL lysis buffer containing 1% Triton X-100 and protease/phosphatase inhibitors (Cell Signaling Technology) or RIPA buffer (Santa Cruz Biotech). […]
# anti- GAPDH (14C10) antibody (#2118) (all antibodies were from Cell Signaling Technology unless indicated, 1:1000 dilution was used) at 4°C overnight, washed three times with TBS-T, then incubated with peroxidase-conjugated secondary antibody (Sigma-Aldrich) for 1 hr at room temperature. […] Band intensity was quantitated using Kodak 1D imaging analysis software. […]
# [16] = tested on: T2, Akt; assay: In vitro phosphorylation of Akt T308 by PDK1; assay type: biochemical; conditions: inactive Akt, PE/PC/PS/PIP3 vesicles
# T2 construct: purchased Millipore 14-279
# [17] = tested on: EGFR(G719S); assay: KINOMEscan; conditions: 50000 nM
# Experimental: KINOMEscan™ selectivity screen
# as §3, §2
# [18] = tested on: EGFR(E746-A750del); assay: KINOMEscan; conditions: 50000 nM
# Experimental: KINOMEscan™ selectivity screen
# as §1, §2
# [19] = tested on: RSK1(Kin.Dom.2-C-terminal); assay: KINOMEscan; conditions: 50000 nM
# Experimental: KINOMEscan™ selectivity screen
# as §3, §2
# [20] = tested on: BRSK1; assay: KINOMEscan; conditions: 50000 nM
# Experimental: KINOMEscan™ selectivity screen
# as §3, §2
# [21] = tested on: ABL1(T315I)-phosphorylated; assay: KINOMEscan; conditions: 50000 nM
# Experimental: KINOMEscan™ selectivity screen
# as §3, §2
# [22] = tested on: VEGFR2; assay: KINOMEscan; conditions: 50000 nM
# Experimental: KINOMEscan™ selectivity screen
# as §3, §2
# [23] = tested on: PIK3C2G; assay: KINOMEscan; conditions: 50000 nM
# Experimental: KINOMEscan™ selectivity screen
# as §3, §2
# [24] = tested on: EGFR; assay: KINOMEscan; conditions: 50000 nM
# Experimental: KINOMEscan™ selectivity screen
# as §3, §2
# [25] = tested on: JAK2(JH1domain-catalytic); assay: KINOMEscan; conditions: 50000 nM
# Experimental: KINOMEscan™ selectivity screen
# as §1, §2
# [26] = tested on: ULK3; assay: KINOMEscan; conditions: 50000 nM
# Experimental: KINOMEscan™ selectivity screen
# as §3, §2
# [27] = tested on: ACVR2A; assay: KINOMEscan; conditions: 50000 nM
# Experimental: KINOMEscan™ selectivity screen
# as §3, §2
# [28] = tested on: ERK5; assay: KINOMEscan; conditions: 50000 nM
# Experimental: KINOMEscan™ selectivity screen
# as §1, §2
# [29] = tested on: FLT3(K663Q); assay: KINOMEscan; conditions: 50000 nM
# Experimental: KINOMEscan™ selectivity screen
# as §1, §2
# [30] = tested on: FER; assay: KINOMEscan; conditions: 50000 nM
# Experimental: as §1, §2
# [31] = tested on: QSK; assay: KINOMEscan; conditions: 50000 nM
# Experimental: KINOMEscan™ selectivity screen
# as §3, §2
# [32] = tested on: TGFBR2; assay: KINOMEscan; conditions: 50000 nM
# Experimental: KINOMEscan™ selectivity screen
# as §3, §2
# [33] = tested on: NEK3; assay: KINOMEscan; conditions: 50000 nM
# Experimental: KINOMEscan™ selectivity screen
# as §3, §2
# [34] = tested on: p38-delta; assay: KINOMEscan; conditions: 50000 nM
# Experimental: KINOMEscan™ selectivity screen
# as §1, §2
# [35] = tested on: SgK110; assay: KINOMEscan; conditions: 50000 nM
# Experimental: KINOMEscan™ selectivity screen
# as §3, §2
compound,measurement,setting,value
"Oc1cc(-c2ccccc2)c2ccccc2n1 [G7, 4-phenylquinolin-2(1H)-one]",Percent Control,[1],79%
same,Percent Control,[2],69%
same,Percent Control,[3],88%
same,Percent Control,[4],95%
same,Percent Control,[5],96%
same,effect on PI3K activity,[6],no effects
same,Percent Control,[7],74%
same,Percent Control,[8],64%
same,Percent Control,[9],100%
same,Percent Control,[10],56%
same,Percent Control,[11],82%
same,Percent Control,[12],92%
same,Percent Control,[13],100%
same,Percent Control,[14],77%
same,IC50,[15],4.9 µM
same,in vitro phosphorylation of T308 by PDK1,[16],impaired
same,Percent Control,[17],100%
same,Percent Control,[18],70%
same,Percent Control,[19],39%
same,Percent Control,[20],72%
same,Percent Control,[21],64%
same,Percent Control,[22],67%
same,Percent Control,[23],97%
same,Percent Control,[24],89%
same,Percent Control,[25],61%
same,Percent Control,[26],86%
same,Percent Control,[27],100%
same,Percent Control,[28],100%
same,Percent Control,[29],29%
same,Percent Control,[30],84%
same,Percent Control,[31],85%
same,Percent Control,[32],100%
same,Percent Control,[33],68%
same,Percent Control,[34],100%
same,Percent Control,[35],100%
